Reference: PubChem BioAssay AID330 (DTP/NCI, 2004)
Toxic doses and inconclusive results are not listed. How the source made its calls: active means survival T/C of 150% or more; inactive means T/C below 125% in these data.

System: P388 leukemia ip, CD2F1 mice, survival T/C
Test: NCI In Vivo Anticancer Drug Screen. Data for tumor model P388 Leukemia (intraperitoneal) in CD2F1 (CDF1) mice
Details: endpoint: median survival time, higher = longer survival
Method in brief: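 Mice carrying the transplanted tumor received test compound or vehicle. Survival was recorded in each group, and the value is the treated-group measurement divided by that of the vehicle-treated control group.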

[1] = dose: 50.0 mg/kg/injection, schedule: Q01DX009 (ip), vehicle: saline
[2] = dose: 100.0 mg/kg/injection, schedule: Q01DX009 (ip), vehicle: saline
[3] = dose: 200.0 mg/kg/injection, schedule: Q01DX009 (ip), vehicle: saline

Measured: T/C

COc1cccc2c(Nc3ccc4c(c3)OCO4)c(C(=O)O)cnc12
inactive: dose: 60.0 mg/kg/injection, schedule: Q01DX005 (ip), vehicle: Klucel + Tween-80 94 % of control | dose: 120.0 mg/kg/injection, schedule: Q01DX005 (ip), vehicle: Klucel + Tween-80 103 % of control

CCCCCCCCC1SC1CCCCCCCCOC(=O)CCCCCCCC1SC1CCCCCCCC (stereo unspecified)
inactive: dose: 100.0 mg/kg/injection, schedule: Q01DX001 (ip), vehicle: saline with Tween-80 95 % of control | dose: 200.0 mg/kg/injection, schedule: Q01DX001 (ip), vehicle: saline with Tween-80 95 % of control | dose: 400.0 mg/kg/injection, schedule: Q01DX001 (ip), vehicle: saline with Tween-80 95 % of control

CC(CC(=O)O)C(N)C(=O)O (stereo unspecified)
inactive: dose: 50.0 mg/kg/injection, schedule: Q01DX005 (ip), vehicle: saline 96 % of control | [1] 92 % of control | dose: 100.0 mg/kg/injection, schedule: Q01DX005 (ip), vehicle: saline 95 % of control | [2] 91 % of control | dose: 200.0 mg/kg/injection, schedule: Q01DX005 (ip), vehicle: saline 101 % of control | [3] 92 % of control

Nc1ncc([N+](=O)[O-])c(Cl)n1
inactive: dose: 12.5 mg/kg/injection, schedule: Q01DX009 (ip), vehicle: saline with Tween-80 105 % of control | dose: 25.0 mg/kg/injection, schedule: Q01DX009 (ip), vehicle: saline with Tween-80 105 % of control | dose: 50.0 mg/kg/injection, schedule: Q01DX009 (ip), vehicle: saline with Tween-80 105 % of control

OCC1N2CCC(CC2)C1(O)O (stereo unspecified)
inactive: dose: 100.0 mg/kg/injection, schedule: Q04DX003 (ip), vehicle: suspension in saline 96 % of control | dose: 200.0 mg/kg/injection, schedule: Q04DX003 (ip), vehicle: suspension in saline 100 % of control | dose: 400.0 mg/kg/injection, schedule: Q04DX003 (ip), vehicle: suspension in saline 106 % of control

N/C(=N\Cl)C(Cl)(Cl)Cl
inactive: dose: 16.5 mg/kg/injection, schedule: Q01DX009 (ip), vehicle: saline 113 % of control | dose: 25.0 mg/kg/injection, schedule: Q01DX009 (ip), vehicle: saline 106 % of control | dose: 37.5 mg/kg/injection, schedule: Q01DX009 (ip), vehicle: saline 111 % of control

c1ccc2c3c([nH]c2c1)CCCC3
inactive: dose: 50.0 mg/kg/injection, schedule: Q01DX009 (ip), vehicle: Klucel (hydroxypropylcellulose) (HPC) 102 % of control | dose: 100.0 mg/kg/injection, schedule: Q01DX009 (ip), vehicle: Klucel (hydroxypropylcellulose) (HPC) 103 % of control | dose: 200.0 mg/kg/injection, schedule: Q01DX009 (ip), vehicle: Klucel (hydroxypropylcellulose) (HPC) 111 % of control

Nc1ccn(C2OC(CO)C3OP(=O)(O)OC32)c(=O)n1 (stereo unspecified)
inactive: dose: 25.0 mg/kg/injection, schedule: Q01DX005 (ip), vehicle: water 101 % of control | dose: 50.0 mg/kg/injection, schedule: Q01DX005 (ip), vehicle: water 100 % of control | dose: 100.0 mg/kg/injection, schedule: Q01DX005 (ip), vehicle: water 101 % of control | dose: 200.0 mg/kg/injection, schedule: Q01DX005 (ip), vehicle: water 101 % of control | dose: 400.0 mg/kg/injection, schedule: Q01DX005 (ip), vehicle: water 100 % of control

O=C(CSc1ncnc2nc[nH]c12)c1ccc([N+](=O)[O-])cc1
inactive: [1] 92 % of control | [2] 102 % of control | [3] 112 % of control

CC1CC(=O)Nc2ncnc(N)c21 (stereo unspecified)
inactive: dose: 60.0 mg/kg/injection, schedule: Q01DX005 (ip), vehicle: saline with Tween-80 98 % of control | dose: 120.0 mg/kg/injection, schedule: Q01DX005 (ip), vehicle: saline with Tween-80 106 % of control | dose: 240.0 mg/kg/injection, schedule: Q01DX005 (ip), vehicle: saline with Tween-80 108 % of control

COc1ccc(/C=N/c2oc(-c3ccccc3)c(-c3ccccc3)c2-c2ccc(OC)cc2)cc1
inactive: dose: 12.5 mg/kg/injection, schedule: Q01DX005 (ip), vehicle: saline with Tween-80 92 % of control | dose: 25.0 mg/kg/injection, schedule: Q01DX005 (ip), vehicle: saline with Tween-80 87 % of control
